Laboratory results: PubChem BioAssay (NCI)
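How tested: cells in 96-well plates exposed to compound for 48 hours at five concentrations. At the GI50, growth is halved. TGI: concentration producing complete growth inhibition.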

Columns and labels:
Experiment in all cases: growth of human tumour cells (NCI), 48 h
SNB-78 CNS = system: SNB-78 CNS
A498 renal = system: A498 renal
UO-31 renal = system: UO-31 renal
SNB-19 CNS = system: SNB-19 CNS
HL-60(TB) leukemia = system: HL-60(TB) leukemia
SNB-75 CNS = system: SNB-75 CNS
HOP-92 NSCLC = system: HOP-92 NSCLC
HCT-15 colon = system: HCT-15 colon
DLD-1 colon = system: DLD-1 colon
DMS 273 small cell lung = system: DMS 273 small cell lung
HOP-18 NSCLC = system: HOP-18 NSCLC
MDA-MB-435 = system: MDA-MB-435

Structure (SMILES) | TGI (SNB-78 CNS) | TGI (A498 renal) | TGI (UO-31 renal) | TGI (SNB-19 CNS) | TGI (HL-60(TB) leukemia) | TGI (SNB-75 CNS) | TGI (HOP-92 NSCLC) | TGI (HCT-15 colon) | TGI (DLD-1 colon) | TGI (DMS 273 small cell lung) | TGI (HOP-18 NSCLC) | TGI (MDA-MB-435) | GI50 (A498 renal) | GI50 (MDA-MB-435) | GI50 (UO-31 renal) | GI50 (SNB-19 CNS) | GI50 (HL-60(TB) leukemia) | GI50 (SNB-75 CNS) | GI50 (HOP-92 NSCLC) | GI50 (HCT-15 colon)
CC(C)(C)C1CCC2(CC1)c1[nH]c3ccccc3c1C1(CCC(C(C)(C)C)CC1)c1[nH]c3ccccc3c12 (stereo unspecified) | > 100 µM | > 100 µM | > 100 µM | > 100 µM | > 100 µM | > 100 µM | > 100 µM | > 100 µM | > 100 µM | > 100 µM | > 100 µM |  |  |  |  |  |  |  |  | 
C=C1C(=O)O[C@@]23C1CC[C@@H](C)C2CC[C@@]1(C)OC31 (stereo partly specified) |  | 59.1 µM | 18.5 µM | 47.4 µM | 10.6 µM | 8.52 µM | 24.2 µM | 30.3 µM |  |  |  | 23 µM |  |  |  |  |  |  |  | 
O=C1C=C(c2ccccc2)O/C1=C/C(=O)c1ccc(Cl)cc1 |  | 75.4 µM | 38.9 µM | > 100 µM | 5.38 µM | 23.6 µM | 44.9 µM | 39.5 µM |  |  |  | 28.5 µM |  |  |  |  |  |  |  | 
COc1c(C)c2nc3ccccc3[nH]c2c2c(=O)ccnc12 |  | > 100 µM | > 100 µM | > 100 µM | > 100 µM | 35.1 µM | > 100 µM | > 100 µM |  |  |  | > 100 µM |  |  |  |  |  |  |  | 
COCC1OC(N2C(=O)NC(=O)[C@@H]3C=C4CCCCC4=C[C@@H]32)C(OC)C1OC (stereo partly specified) |  | > 100 µM | > 100 µM | > 100 µM | > 100 µM | > 100 µM | > 100 µM | > 100 µM |  |  |  | > 100 µM |  |  |  |  |  |  |  | 
Cc1cc2ncc3c(=O)n(NS(=O)(=O)c4ccc(N)cc4)ccc3n2n1 |  | > 100 µM | > 100 µM | > 100 µM | > 100 µM | > 100 µM | > 100 µM | > 100 µM |  |  |  | > 100 µM |  |  |  |  |  |  |  | 
COC(=O)c1ccc(C=Nc2ccc(S(N)(=O)=O)cc2)cc1 |  | > 100 µM | > 100 µM | > 100 µM | > 100 µM | > 100 µM | > 100 µM | > 100 µM |  |  |  | > 100 µM |  |  |  |  |  |  |  | 
CN(C)S(=O)(=O)Nc1nnc(S(N)(=O)=O)s1 |  | > 100 µM | > 100 µM | > 100 µM | > 100 µM | > 100 µM | > 100 µM | > 100 µM |  |  |  | > 100 µM |  |  |  |  |  |  |  | 
CCC(C)C(=O)OC1CC2(C)C(c3ccoc3)OC(=O)CC23OC2(C)OC34C(OC(=O)C(C)C)C3(O)C(OC(=O)C5(C)OC5C)C5(C)CC3(O)C(C)(C5CC(=O)OC)C14O2 (stereo unspecified) |  | > 100 µM | > 100 µM | > 100 µM | 38.9 µM | > 100 µM | > 100 µM | > 100 µM |  |  |  | > 100 µM |  |  |  |  |  |  |  | 
O=C(O)C(CS)N=c1c2ccccc2n(O)c2ccccc12 (stereo unspecified) | > 100 µM | > 100 µM | > 100 µM | > 100 µM | > 100 µM | > 100 µM |  | > 100 µM | > 100 µM | > 100 µM | > 100 µM |  |  |  |  |  |  |  |  | 
NC(N)=NS(=O)(=O)c1ccc(NC(=O)c2ccc3nc4ccccc4c(Nc4ccc(S(=O)(=O)N=C(N)N)cc4)c3c2)cc1 |  | > 100 µM | > 100 µM | > 100 µM | > 100 µM | > 100 µM | > 100 µM | > 100 µM |  |  |  | > 100 µM |  |  |  |  |  |  |  | 
COC(=O)C1CC2(c3ccccc3)C(=O)c3ccccc3N2O1 (stereo unspecified) | > 100 µM | > 100 µM |  | > 100 µM | 82.1 µM | > 100 µM | > 100 µM | > 100 µM | > 100 µM | > 100 µM | > 100 µM |  |  |  |  |  |  |  |  | 
CC1(C)C=C(S(=O)(=O)c2ccccc2)Oc2ccccc2O1 |  | > 100 µM | 86.2 µM | > 100 µM | 46.2 µM | 82.3 µM | 67.5 µM | > 100 µM |  |  |  | 48 µM |  |  |  |  |  |  |  | 
N#Cc1c(-c2ccc(F)cc2)nc(N/N=C/c2c[nH]c3ccccc23)nc1N1CCOCC1 |  | 11.5 µM | 55.2 µM | > 100 µM | 7.57 µM | 38.4 µM | 52.4 µM | 4.56 µM |  |  |  | 74.9 µM | 1.33 µM | 9.26 µM | 1.76 µM | 21 µM | 0.563 µM | 3.45 µM | 2.44 µM | 0.784 µM
CN(C)CCn1c(=O)c2ccc(NCCCN(C)CCCNc3ccc4c(=O)n(CCN(C)C)c(=O)n5c6ccc([N+](=O)[O-])cc6c(=O)c3c45)c3c(=O)c4cc([N+](=O)[O-])ccc4n(c1=O)c23 |  | 0.398 µM | 0.705 µM | 0.193 µM | 1.56 µM | 0.195 µM | 0.198 µM | 0.542 µM |  |  |  | 0.097 µM |  |  |  |  |  |  |  | 
c1ccc2c3c(c(N4CCOCC4)nc2c1)CCCC3 |  | 81.6 µM | > 100 µM | > 100 µM | 69.3 µM | 83.1 µM | > 100 µM | > 100 µM |  |  |  | > 100 µM |  |  |  |  |  |  |  | 
CSc1nc2c(c(=O)n1C)N=C(c1ccccc1)[C@H](C(CC(=O)c1ccccc1)c1ccccc1)C(c1ccccc1)N2 (stereo partly specified) |  | > 100 µM | > 100 µM | > 100 µM | > 100 µM | > 100 µM | > 100 µM | > 100 µM |  |  |  | > 100 µM |  |  |  |  |  |  |  | 
COC1(OC)CCCCC2c3cccc(OC(C)=O)c3C21OC(C)=O (stereo unspecified) | > 100 µM |  | > 100 µM | > 100 µM | > 100 µM | > 100 µM |  | > 100 µM | > 100 µM | > 100 µM | > 100 µM |  |  |  |  |  |  |  |  | 
O=C(Nc1ccccc1C(=O)NCCCO)/C(=C/c1ccccc1O)NC(=O)c1ccccc1 |  | > 100 µM | > 31.6 µM | 40.8 µM | > 100 µM | > 83.9 µM | > 100 µM | > 100 µM |  |  |  | > 100 µM |  |  |  |  |  |  |  | 
O=C(CC1=NCCN1)c1ccccc1 | > 750 µM | > 75 µM | > 750 µM | > 750 µM | > 750 µM | > 750 µM | > 750 µM | > 750 µM | > 750 µM | > 750 µM | > 750 µM |  |  |  |  |  |  |  |  | 
O=C(N/N=C/c1ccco1)c1cc(I)cc(I)c1O |  | 32.8 µM | > 50 µM | > 50 µM | 27.7 µM | > 50 µM | > 50 µM | > 50 µM |  |  |  | > 50 µM |  |  |  |  |  |  |  | 
COc1cc(CN2CCCCC2)cc2cc(C(=O)O)c(=O)oc12 |  | > 100 µM | > 100 µM | > 100 µM | > 100 µM | > 100 µM | > 100 µM | > 100 µM |  |  |  | > 100 µM |  |  |  |  |  |  |  | 
COc1c(Br)cc(CC(N)=O)c(O)c1Br | > 100 µM | > 100 µM | > 100 µM | > 100 µM | > 100 µM | > 100 µM | > 100 µM |  | > 100 µM | > 100 µM | > 100 µM |  |  |  |  |  |  |  |  | 
Brc1ccc2c(-c3csc(-c4c[nH]c5ccc(Br)cc45)n3)c[nH]c2c1 |  | 8.42 µM | 14.4 µM | 14.7 µM | 19.7 µM | 24.9 µM | 9.27 µM | 14.5 µM |  |  |  | 17.7 µM |  |  |  |  |  |  |  | 
O=[N+]([O-])c1ccc(-c2ccc(-c3csc(Nc4ccccn4)n3)o2)cc1 | > 100 µM |  | > 100 µM | 77.4 µM | > 100 µM | > 100 µM | > 100 µM | > 100 µM | > 100 µM | > 100 µM |  |  |  |  |  |  |  |  |  | 
COCc1nc2c(OC)cc(-c3nc4ccc(N5CCN(C)CC5)cc4[nH]3)c(OC)c2[nH]1 |  | > 100 µM | > 100 µM | > 100 µM | > 100 µM | > 100 µM | > 100 µM | > 100 µM |  |  |  | > 100 µM |  |  |  |  |  |  |  | 
Brc1ccc2c(-c3csc(-c4c[nH]c5cc(Br)ccc45)n3)c[nH]c2c1 |  | > 83.5 µM | > 100 µM | 58.2 µM | > 100 µM | 66.1 µM | > 100 µM | > 89.9 µM |  |  |  | 17.5 µM |  |  |  |  |  |  |  | 
FC(F)(F)c1ccc2nc3n(c2c1)C(c1c(Cl)cccc1Cl)SC3 (stereo unspecified) |  | 34.8 µM | 26.8 µM | 34 µM | 33.2 µM | 25.8 µM | 17.7 µM | 29.6 µM |  |  |  | 30.5 µM |  |  |  |  |  |  |  | 
